Legend:
Mus musculus [1] = experiment: Ex-vivo inhibition of po dosed mouse PrCP by FRET analysis in presence of heat inactivated 25% plasma; format: functional, organism-based
[2] = Percentage unbound in 10% human plasma; format: ADME, cell-free
Mus musculus [3] = experiment: Ex-vivo inhibition of PrCP in heat inactivated 100% plasma of C57 mouse assessed as target engagement calculated as [cmpd]plasma/([cmpd]plasma + Ki (heat inactivated plasma))x100 at 10 mg/kg, po after 20 hrs by FRET analysis; format: functional; parameters: scale not given: the % may be the effect or the level left
[4] = Clearance in mouse at 1 mg/kg, iv and 30 mg/kg, po; format: ADME, organism-based; conditions: in vivo
[5] = Drug uptake in C57 mouse plasma at 10 mg/kg, po after 20 hrs by LC/MS analysis; format: ADME, organism-based; parameters: dose 10 mg/kg, route oral
Mus musculus [6] = experiment: Ex-vivo inhibition of po dosed mouse PrCP by FRET analysis in presence of heat inactivated 100% plasma; format: functional, organism-based
[7] = Stability in mouse liver microsomes after 30 mins by LC/MS analysis; format: ADME, Microsome; conditions: read-out: Stability
[8] = Half life in mouse at 1 mg/kg, iv and 30 mg/kg, po; format: ADME, organism-based; conditions: in vivo
Mus musculus [9] = experiment: Ex-vivo inhibition of PrCP in heat inactivated 100% plasma of C57 mouse assessed as target engagement at 10 mg/kg, po after 20 hrs by FRET analysis; format: functional; parameters: scale not given: the % may be the effect or the level left
[10] = Oral bioavailability in mouse at 30 mg/kg; format: ADME, organism-based; conditions: in vivo
Mus musculus [11] = experiment: Ex-vivo inhibition of PrCP in heat inactivated 100% plasma of C57 mouse assessed as target engagement calculated as [cmpd]plasma/([cmpd]plasma + Ki (heat inactivated plasma))x100 at 30 mg/kg, po after 20 hrs by FRET analysis; format: functional; parameters: scale not given: the % may be the effect or the level left
[12] = Drug uptake in C57 mouse plasma at 30 mg/kg, po after 20 hrs by LC/MS analysis; format: ADME, organism-based; parameters: dose 30 mg/kg, route oral
Mus musculus [13] = experiment: Ex-vivo inhibition of PrCP in heat inactivated 100% plasma of C57 mouse assessed as target engagement at 30 mg/kg, po after 20 hrs by FRET analysis; format: functional; parameters: scale not given: the % may be the effect or the level left
[14] = Ratio of drug uptake in brain to plasma of C57 mouse at 30 mg/kg, po after 20 hrs by LC/MS analysis; format: ADME, organism-based; parameters: dose 30 mg/kg, route oral; conditions: read-out: BPR
[15] = Drug uptake in C57 mouse brain at 10 mg/kg, po after 20 hrs by LC/MS analysis; format: ADME, organism-based; parameters: dose 10 mg/kg, route oral; conditions: read-out: Drug uptake
Mus musculus [16] = experiment: Dose normalized AUC in mouse at 1 mg/kg, iv and 30 mg/kg, po; format: ADME, organism-based; conditions: in vivo
[17] = Stability in human liver microsomes after 30 mins by LC/MS analysis; format: ADME, Microsome; conditions: read-out: Stability
[18] = Volume of distribution in mouse at 1 mg/kg, iv and 30 mg/kg, po; format: ADME, organism-based; conditions: in vivo
[19] = Apparent permeability across pig LLC-PK1 cells at 1 uM; format: ADME, cell-based, Sus scrofa
[20] = Ratio of drug uptake in brain to plasma of C57 mouse at 10 mg/kg, po after 20 hrs by LC/MS analysis; format: ADME, organism-based; parameters: dose 10 mg/kg, route oral; conditions: read-out: BPR
Mus musculus [21] = experiment: Ex-vivo inhibition of po dosed mouse PrCP by FRET analysis in absence of plasma; format: functional, organism-based
[22] = Percentage unbound in 10% mouse plasma; format: ADME, cell-free
[23] = Drug uptake in C57 mouse brain at 30 mg/kg, po after 20 hrs by LC/MS analysis; format: ADME, organism-based; parameters: dose 30 mg/kg, route oral; conditions: read-out: Drug uptake
[24] = target: T1, Lysosomal Pro-X carboxypeptidase (Mus musculus, UniProt Q7TMR0); experiment: Inhibition of mouse PrCP
T1 sequence (Q7TMR0 whole entry): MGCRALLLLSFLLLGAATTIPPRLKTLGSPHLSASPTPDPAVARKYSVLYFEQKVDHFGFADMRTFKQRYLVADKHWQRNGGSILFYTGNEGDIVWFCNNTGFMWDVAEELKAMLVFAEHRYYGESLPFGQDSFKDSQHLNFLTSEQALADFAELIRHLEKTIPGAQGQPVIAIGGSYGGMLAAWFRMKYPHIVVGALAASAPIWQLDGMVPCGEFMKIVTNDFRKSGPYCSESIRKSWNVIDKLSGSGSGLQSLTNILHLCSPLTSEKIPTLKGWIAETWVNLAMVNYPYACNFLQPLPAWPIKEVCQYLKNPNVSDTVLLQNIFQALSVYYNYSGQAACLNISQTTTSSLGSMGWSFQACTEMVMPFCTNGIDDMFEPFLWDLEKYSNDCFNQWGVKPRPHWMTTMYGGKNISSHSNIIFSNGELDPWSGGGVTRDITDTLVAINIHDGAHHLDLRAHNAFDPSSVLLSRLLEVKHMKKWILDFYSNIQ

Row | Compound | Ki (Mus musculus [1]) [nM] | fraction unbound [2] | Ki (Mus musculus [6]) [nM] | remaining at 0.5 h [7] [%] | remaining at 0.5 h [17] [%] | Ki (Mus musculus [21]) [nM] | fraction unbound [22] | IC50 [24] [nM] | also measured
1 | Cc1cc(C2CCN(C(=O)[C@@H]3C[C@@](C)(N)C[C@H]3c3ccc(F)cc3F)CC2)n(-c2ccc(F)c(Cl)c2)n1 | 3.7 | 0.043 | 10.1 | 90 | 60 | 1.6 | 0.036 | – | Activity (Mus musculus [3]): 96.1%; clearance [4]: 18 mL/min/kg; concentration at 20 h [5]: 246 nM; half-life [8]: 4.9 h; Activity (Mus musculus [9]): 62.8%; bioavailability [10]: 57%; Activity (Mus musculus [11]): 99.6%; concentration at 20 h [12]: 2820 nM; Activity (Mus musculus [13]): >=100%; Kp at 20 h [14]: 0.17; concentration at 20 h [15]: 39 nM; AUC/dose (Mus musculus [16]): 1 µM·kg·h/mg; Vd [18]: 6.2 L/kg; Papp at 1 µM [19]: 24 ×10⁻⁶ cm/s; Kp at 20 h [20]: 0.18; concentration at 20 h [23]: 363 nM
2 | CN(C)[C@@]1(C)C[C@H](C(=O)N2CCC(c3ccnn3-c3ccc(F)c(Cl)c3)CC2)[C@@H](c2ccc(F)cc2F)C1 | – | 0.104 | – | 34 | 2 | – | 0.132 | – | –
3 | Cc1nc(C2CCN(C(=O)[C@@H]3C[C@@](C)(N(C)C)C[C@H]3c3ccc(F)cc3F)CC2)n(-c2ccc(F)c(Cl)c2)n1 | 1.1 | 0.32 | 1.1 | – | – | 1.1 | 0.22 | – | –
4 | C[C@@]1(N)C[C@@H](C(=O)N2CCC(c3ncnn3-c3ccc(F)c(Cl)c3)CC2)[C@H](c2ccc(F)cc2F)C1 | – | 0.21 | – | – | – | – | 0.15 | 16 | –
5 | Cc1nc(C2CCN(C(=O)[C@@H]3C[C@](C)(N)C[C@H]3c3ccc(F)cc3F)CC2)n(-c2ccc(F)c(Cl)c2)n1 | – | – | – | 93 | 91 | – | – | 47.8 | –

Further lines, with some results ahead:

Row | Ki (Mus musculus [1]) [nM] | fraction unbound [2] | Ki (Mus musculus [6]) [nM] | remaining at 0.5 h [7] [%] | remaining at 0.5 h [17] [%] | Ki (Mus musculus [21]) [nM] | fraction unbound [22] | IC50 [24] [nM] | Compound | also measured
6 | – | 0.1 | – | 89 | 33 | – | 0.061 | 2.6 | C[C@]1(N)C[C@H](C(=O)N2CCC(c3ccnn3-c3ccc(F)c(Cl)c3)CC2)[C@@H](c2ccc(F)cc2F)C1 | –
7 | 6.3 | 0.05 | 16.6 | 47 | 27 | 2.9 | 0.22 | 2.5 | Cc1nc(C2CCN(C(=O)[C@@H]3C[C@@](C)(N(C)C)C[C@H]3c3ccc(F)cc3F)CC2)n(-c2ccc(Cl)c(C)c2)n1 | –
8 | 4.6 | 0.205 | 4.6 | – | – | 4.6 | 0.127 | 11.2 | Cc1nc(C2CCN(C(=O)[C@@H]3C[C@@](C)(N)C[C@H]3c3ccc(F)cc3F)CC2)n(-c2ccc(F)c(Cl)c2)n1 | –
9 | 1.5 | 0.064 | 4.5 | – | – | 0.6 | 0.035 | 0.5 | Cc1cc(C2CCN(C(=O)[C@@H]3C[C@@](C)(N(C)C)C[C@H]3c3ccc(F)cc3F)CC2)n(-c2ccc(F)c(Cl)c2)n1 | –
10 | 1 | 0.33 | 1 | 6 | 18 | 1 | 0.14 | 2 | Cc1nc(C2CCN(C(=O)[C@@H]3C[C@@](C)(N(C)C)C[C@H]3c3ccc(F)cc3F)CC2)n(-c2cc(Cl)ccc2Cl)n1 | –
11 | 4.7 | 0.245 | 8 | 79 | 79 | 3.7 | 0.091 | 4.1 | Cc1nc(C2CCN(C(=O)[C@@H]3C[C@@](C)(N)C[C@H]3c3ccc(F)cc3F)CC2)n(-c2cc(Cl)ccc2Cl)n1 | –
